In PubChem BioAssay AID608 (Sanford-Burnham Center for Chemical Genomics, 2007):
Active and inactive are the calls of the source. No rule for the calls is given here.

What follows are compounds tested against Peptidyl-prolyl cis-trans isomerase FKBP1A (Homo sapiens) (UniProt P62942) (assay: FKBP12 binders, biophysical, NMR detection (AID 608)). Conditions: NMR binding, purified FKBP12.
Chain of Peptidyl-prolyl cis-trans isomerase FKBP1A (Homo sapiens) (P62942 whole entry, looked up): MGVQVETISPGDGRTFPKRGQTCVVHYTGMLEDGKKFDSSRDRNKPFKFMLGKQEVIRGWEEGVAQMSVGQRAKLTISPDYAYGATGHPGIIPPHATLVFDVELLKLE

| SMILES | Kd |
| --- | --- |
| CC(=O)O[C@H]1C[C@@H](OC(C)=O)C(C)(C)C2C[C@@H](O)[C@]3(C)C(CC[C@@]4(C)[C@H](c5ccoc5)OC(=O)[C@H]5O[C@]543)[C@]21C (stereo partly drawn) | > 4 mM (inactive) |
| Cc1cc(C(=O)N2CCOCC2)c(C)o1 | > 4 mM (inactive) |
| O=c1[nH]cc(NC(=S)N2CCOCC2)c(=O)[nH]1 | > 4 mM (inactive) |
| COc1c(C)c2c(c(O)c1C/C=C(\C)CCC(=O)O)C(=O)OC2 | > 4 mM (inactive) |
| Cc1nc(-c2cc(C(=O)O)no2)cs1 | > 4 mM (inactive) |
| Cn1nnc2c(Cl)ncnc21 | > 4 mM (inactive) |
| C=CCCCCCCCCCCCC(O)CC(O)COC(C)=O (stereo not drawn) | > 4 mM (inactive) |
| CC(C)c1ccc(SCC(=O)N2CCOCC2)cc1 | 5e-05 mM |
| O=C(NCN1CCOCC1)c1cnccn1 | > 4 mM (inactive) |
| Cc1nc2ccccc2c(=O)n1N1C(=O)CCCC1=O | > 4 mM (inactive) |
| COc1cc(NC(=O)c2ccccc2)c(C)cc1N | > 4 mM (inactive) |
| C=CCCCCCCCCCCCC(O)CC(O)CO (stereo not drawn) (tested in a mixture with another compound) | > 4 mM (inactive) |
| C1CCN2C[C@@H]3C[C@H](CN4CCCC[C@@H]34)[C@H]2C1 | > 4 mM (inactive) |
| CN1C(=O)/C(=C\c2ccc[nH]2)SC1=S | > 4 mM (inactive) |
| O=C(/C(=N\O)n1cncn1)c1ccccc1Cl | > 4 mM (inactive) |
| CC(=O)c1sc(NC(=O)C=C(C)C)nc1C | > 4 mM (inactive) |
| O=C(O)c1ccc(-n2cccc2)cc1 | > 4 mM (inactive) |
| S=C=NCc1ccccc1 | > 4 mM (inactive) |
| COc1ccc(/C=N/n2cn[nH]c2=S)cc1 | > 4 mM (inactive) |
| Cn1cc(Cl)c(C(=O)NC2CCCCCC2)n1 | > 4 mM (inactive) |
| CC(=O)O[C@@H]1C[C@@]2(C)[C@H](c3ccoc3)C[C@H]3O[C@]32[C@]2(C)C(=O)C(O)=C3C(C)(C)C(=O)C=C[C@]3(C)C12 (stereo partly drawn) | > 4 mM (inactive) |
| O=S1(=O)CCC(NCc2ccccc2)C1 (stereo not drawn) | > 4 mM (inactive) |
| COc1ccc(S(=O)(=O)Nc2ccccn2)c(C)c1C | > 4 mM (inactive) |

| SMILES | Kd |
| --- | --- |
| CC(=O)OC[C@@]1(O)C[C@@]23CCC4c5ccoc5CC[C@]4(C)C2CC[C@@H]1C3 (stereo partly drawn) | > 4 mM (inactive) |
| Cn1c([O-])c([N+](C)(C)C)c(=O)n(C)c1=O | > 4 mM (inactive) |
| O=C(O)CCC1=C2c3ccccc3CCN2C(=O)CC1 | > 4 mM (inactive) |
| O=C(/C=C/c1ccccc1)c1ccc(O)cc1 | > 4 mM (inactive) |
| Cn1c(CSc2nc3ccccc3s2)n[nH]c1=S | > 4 mM (inactive) |
| O=C(CSc1nc2ccccc2[nH]1)N1CCCCC1 | > 4 mM (inactive) |
| CCCn1c(S(=O)(=O)O)nc2ccccc21 | > 4 mM (inactive) |
| O=c1c(-c2ccc(O)cc2)coc2cc(O)ccc12 | > 4 mM (inactive) |
| O=C1CCCc2c(O)cccc21 | > 4 mM (inactive) |
| CCC1(CC)C(=O)N=C(N)NC1=O | > 4 mM (inactive) |
| Cc1cc(C)n2nc(-c3cccnc3)nc2n1 | > 4 mM (inactive) |
| Cc1n[nH]c(=S)n(/N=C/c2cccs2)c1=O | > 4 mM (inactive) |
| COC(=O)c1cccnc1Oc1ccccc1 | > 4 mM (inactive) |
| O=C1COc2ccc(C(=O)c3ccccc3)cc2CN1 | > 4 mM (inactive) |
| Cn1c2ccccc2n2c(=S)[nH]nc12 | > 4 mM (inactive) |
| CC(C)c1ccc(SCC(=O)O)cc1 | > 4 mM (inactive) |
| Cc1ccc(S(=O)(=O)CC(=O)N2CCCC2)cc1 | > 4 mM (inactive) |
| CN1CCn2c1nc(N1CCOCC1)nc2=O | > 4 mM (inactive) |
| Cc1cc(SCC(=O)Nc2nccs2)nc(=O)[nH]1 | > 4 mM (inactive) |
| COc1cc([C@@H]2c3cc4c(c(O)c3C[C@H]3COC(=O)[C@@H]32)OCO4)cc(OC)c1OC | > 4 mM (inactive) |
| CC(=O)O[C@H]1CCC2(C)C3=C(CCC2C1(C)C)[C@@]1(C)CC[C@@H](C(C)CCC=C(C)C)[C@]1(C)CC3 (stereo partly drawn) | > 4 mM (inactive) |
| NC(=O)Cn1nc(-c2ccc(F)cc2)ccc1=O | > 4 mM (inactive) |
| CC(C)=CCCC1(C)C=Cc2c(O)c3c(c(CC=C(C)C)c2O1)OC12C(=CC4CC1C(C)(C)OC2(C/C=C(/C)C(=O)O)C4=O)C3=O (stereo not drawn) | > 4 mM (inactive) |

| SMILES | Kd |
| --- | --- |
| O=C1NC(=O)C(C(C[N+](=O)[O-])c2ccc(O)cc2)C(=O)N1 (stereo not drawn) | > 4 mM (inactive) |
| O=c1c(O)c(-c2ccc(O)cc2O)oc2cc(O)cc(O)c12 | > 4 mM (inactive) |
| CC(=O)O[C@H]1C(=O)[C@@]2(C)C([C@H](OC(=O)c3ccccc3)[C@]3(O)C[C@H](OC(=O)[C@H](O)[C@@H](NC(=O)c4ccccc4)c4ccccc4)C(C)=C1C3(C)C)[C@]1(OC(C)=O)CO[C@@H]1C[C@@H]2O (stereo partly drawn) | > 4 mM (inactive) |
| Cc1ccc(-c2nnn(CC(=O)O)n2)cc1 | > 4 mM (inactive) |
| O=C(O)C1CC(=O)N(Cc2ccco2)C1 (stereo not drawn) | > 4 mM (inactive) |
| Cn1nc(C(=O)Nc2cccnc2)cc1Cl | > 4 mM (inactive) |
| O=C(Nc1ccccc1)c1cccc(N2C(=O)CCC2=O)c1 | > 4 mM (inactive) |
| CCOc1cccc(C(=O)c2ccc(O)c(O)c2O)c1 | > 4 mM (inactive) |
| Nc1nc2c3ccccc3nc(Cc3ccccc3)n2n1 | > 4 mM (inactive) |
| CCc1cccc(C)c1NC(=O)c1cc(C)oc1C | > 4 mM (inactive) |
| Nc1c(N2CCCC2)cnn(-c2ccccc2)c1=O | > 4 mM (inactive) |
| OCc1ccc(-c2cccs2)s1 | > 4 mM (inactive) |
| O=C(O)C1Cc2c([nH]c3ccccc23)CN1 (stereo not drawn) | > 4 mM (inactive) |
| Cc1nnc(SCc2ccc(F)cc2)s1 | > 4 mM (inactive) |
| OCc1ccccc1CN1CCOCC1 | > 4 mM (inactive) |
| CN1C(=O)N(C)C2NC(=O)NC21 (stereo not drawn) | > 4 mM (inactive) |
| N#Cc1cnn2c(C(F)(F)F)cc(C(F)(F)F)nc12 | > 4 mM (inactive) |
| COC(=O)C1CCN(c2ccc(Cl)nn2)CC1 | > 4 mM (inactive) |
| CC(=O)c1c(C)nn(CC(=O)O)c1C | > 4 mM (inactive) |
| Cc1cc(C(F)(F)F)n2nc(C(=O)O)c(Cl)c2n1 | > 4 mM (inactive) |
| Cc1oc2nc3c(c(=O)[nH]c(=O)n3C)n2c1C | > 4 mM (inactive) |
| CSc1nnc(CN2CCSCC2)n1C | > 4 mM (inactive) |
| CCCCCCCCCCCCCCCCCCOCC(O)CO (stereo not drawn) | > 4 mM (inactive) |

| SMILES | Kd |
| --- | --- |
| Nc1cc2ccccc2cn1 | > 4 mM (inactive) |
| CCn1nccc1C(=O)Nc1ccc(Cl)cc1Cl | > 4 mM (inactive) |
| CCN=Cc1c(O)n(-c2ccccc2C)c(=O)[nH]c1=O | > 4 mM (inactive) |
| CNS(=O)(=O)c1ccc2[nH]c(=O)[nH]c2c1 | > 4 mM (inactive) |
| CCc1c(C(=O)Nc2ccncc2)csc1C | > 4 mM (inactive) |
| Cc1nn(-c2ccccc2)c(Cl)c1C(N)=O | > 4 mM (inactive) |
| CC1=C/C(=C\c2c(O)[nH]c(=O)[nH]c2=O)C(C)=N1 | > 4 mM (inactive) |
| Cc1cc(C)nc(Nc2n[nH]c(Cc3ccccc3)n2)n1 | > 4 mM (inactive) |
| O=C1NC2NC(=O)N(c3ccccc3)C2N1 (stereo not drawn) | > 4 mM (inactive) |
| CN1CCN(Cc2cccnc2)CC1 | > 4 mM (inactive) |
| Cc1nc2ccccc2c(=O)n1/N=C/c1ccncc1 | > 4 mM (inactive) |
| CC(=O)Nc1ccc(N2C(=O)C=CC2=O)cc1C | > 4 mM (inactive) |
| COc1ccc2c(c1)OC/C(=C\c1ccc(OC)c(O)c1)C2=O | > 4 mM (inactive) |
| CC(C)c1c(O)ccc2c1CCC1[C@@](C)(C=O)CCC[C@]21C (stereo partly drawn) | > 4 mM (inactive) |
| c1cncc(C(N2CCOCC2)N2CCOCC2)c1 | > 4 mM (inactive) |
| CN(C)S(=O)(=O)c1ccccc1C#N | > 4 mM (inactive) |
| NC(=O)c1cc2c(n(-c3ccccc3)c1=O)CCCC2=O | > 4 mM (inactive) |
| CC(C)(O)[C@@H]1[C@H]2OC(=O)[C@@H]1[C@]1(O)C[C@H]3O[C@]34C(=O)O[C@H]2[C@]14C | > 4 mM (inactive) |
| CC(=O)c1cccc(NS(=O)(=O)N2CCOCC2)c1 | inactive |
| CC(C)(C)NC(=O)N1CCC(C(=O)O)CC1 | > 4 mM (inactive) |
| CCSc1nnc2[nH]c(=O)cc(C)n12 | > 4 mM (inactive) |
| Nc1ccccc1N=C1CNC(=O)C1 | > 4 mM (inactive) |
| O=c1[nH]cc(S(=O)(=O)N2CCc3ccccc32)c(=O)[nH]1 | > 4 mM (inactive) |

| SMILES | Kd |
| --- | --- |
| CSc1nnc(-c2ccccc2NC(C)=O)o1 | > 4 mM (inactive) |
| O=C(c1ccco1)N1C(=O)c2cccc3cccc1c23 | > 4 mM (inactive) |
| C[C@H]1C[C@@H](O)[C@]2(O)[C@@]13CC(=O)OC[C@@]2(C)[C@](C)(O)C(=O)C3 | > 4 mM (inactive) |
| O=C(c1ccccc1)N1CCNCC1 | > 4 mM (inactive) |
| COC1C(O)C(O)C(O)[C@@H](O)C1O (stereo partly drawn) | > 4 mM (inactive) |
| O=C1CN(C(=O)c2ccccc2F)c2ccccc2N1 | > 4 mM (inactive) |
| Cc1nnc(SCc2cccs2)[nH]c1=O | > 4 mM (inactive) |
| COCC(=O)Nc1ccc(C)c(Cl)c1 | > 4 mM (inactive) |
| COC(=O)[C@@]1(C)CCC[C@]2(C)c3ccc(O)c(C(C)C)c3CCC12 (stereo partly drawn) | > 4 mM (inactive) |
| Nc1ccc2c(c1)C(=O)OC2 | > 4 mM (inactive) |
| CC(=O)O[C@@H]1CC2C(C)(C)C=CC(=O)[C@]2(C)C2CC[C@@]3(C)[C@H](c4ccoc4)OC(=O)C4OC43[C@@]21C (stereo partly drawn) | > 4 mM (inactive) |
| NC(=O)C1(S(=O)(=O)c2ccccc2)CC1 | > 4 mM (inactive) |
| COCc1cc(C)nc2sc(C(=O)OC)c(N)c12 | > 4 mM (inactive) |
| CCn1c(=O)cc(N2CCC3(CC2)OCCO3)[nH]c1=O | > 4 mM (inactive) |
| O=C(O)c1onc2ccccc12 | > 4 mM (inactive) |
| COC(=O)[C@@H]1CCCCN1C(=O)C(=O)c1cc(OC)c(OC)c(OC)c1 | 0.003 mM |
| Cc1[nH]c(=O)[nH]c(=O)c1N1CCOCC1 | > 4 mM (inactive) |
| Cc1c(F)cccc1NS(=O)(=O)c1ccccc1C#N | > 4 mM (inactive) |
| CC1=C(C(N)=O)C(c2ccccc2)NC(=O)N1 (stereo not drawn) | > 4 mM (inactive) |
| COc1ccc2c(C)cc(=O)oc2c1 | > 4 mM (inactive) |
| CCOC(=O)C1CCNCC1 | > 4 mM (inactive) |
